In patent publication US20230028680A1, “EXPANSION OF NATURAL KILLER CELLS AND ILC3 CELLS WITH NOVEL AROMATIC COMPOUNDS” (Celularity Inc., priority 2018, published 2023):
Entries after “also recorded” stand apart in the source; their conditions may differ.

How the values were obtained:
Format in all cases: cell-based, human
NK cells [1] = assay: NK cell differentiation at Day 35 by multi-color flow cytometry; conditions: PNK-007 culture, compound at 10 μM
From the text: (§1) UCB CD34+ cells were cultivated in presence of cytokines including thrombopoietin, SCF, Flt3 ligand, IL-7, IL-15 and IL-2 for 35 days to produce three-stage NK cells, as described in Example 1. Multi-color flow cytometry was used to determine the phenotypic characteristics of three-stage NK cells.
(§2) For biological testing, the compounds were provided to culture to evaluate their effects on NK cell expansion and differentiation. Specifically, donors of CD34+ cells (StemCell Technology) were thawed and expanded in vitro following NK culture protocol. During the first 14 days of the culture, each CRL compounds was dissolved in DMSO and added to the culture at 10 μM concentration. SR1 (at 10 μM) served as a positive control compound, while DMSO alone without any compound served as a negative control. At the end of the culture on Day 35, cell expansion, natural killer (NK) cell differentiation and cytotoxicity of the cells against K562 tumor cell line were characterized. Due to the large number of the compounds, the testing was performed in two experiments, CRL1-11 and CRL 12-22. The same donors were used for each experiment. Positive and negative controls were also included in both experiments.

NK cells [2] = assay: NK cell expansion from CD34+ cells in three-stage NK culture, compound present for the first 14 days; conditions: for level of expansion compared to SR1 at Day 35 / expansion, differentiation and cytotoxicity profiles compared to SR1: compound at 10 μM; for level of expansion compared to SR1 at Day 35: SR1 at 10 μM as positive control; for expansion, differentiation and cytotoxicity profiles compared to SR1: PNK-007 culture; for support of NK cell expansion (and differentiation), in words: compound at 10 μM during first 14 days of culture; for level of expansion compared to SR1 at Day 35 / support of NK cell expansion (and differentiation), in words: Day 35
Method: (§3) CD34^+ cells are cultured in the following medium formulations for the indicated number of days, and aliquots of cells are taken for assessment of cell count, cell viability, characterization of natural killer cell differentiation and functional evaluation.
(§4) Stage 1 medium: 90% Stem Cell Growth Medium (SCGM) (CellGro®), 10% Human Serum-AB, supplemented with 25 ng/mL or 250 ng/mL recombinant human thrombopoietin (TPO), 25 ng/mL recombinant human Flt3L, 27 ng/mL recombinant human stem cell factor (SCF), 25 ng/mL recombinant human IL-7, 0.05 ng/mL or 0.025 ng/mL recombinant human IL-6, 0.25 ng/mL or 0.125 ng/mL recombinant human granulocyte colony-stimulating factor (G-CSF), 0.01 ng/mL or 0.025 ng/mL recombinant human granulocyte-macrophage colony-stimulating factor (GM-CSF), 0.10% gentamicin, and 1 to 10 μm StemRegenin-1 (SR-1) or other stem cell mobilizing agent.
(§5) Stage 2 medium: 90% SCGM, 10% Human Serum-AB, supplemented with 25 ng/mL recombinant human Flt3L, 27 ng/mL recombinant human SCF, 25 ng/mL recombinant human IL-7, 20 ng/mL recombinant human IL-15, 0.05 ng/mL or 0.025 ng/mL recombinant human IL-6, 0.25 ng/mL or 0.125 ng/mL recombinant human granulocyte colony-stimulating factor (G-CSF), 0.01 ng/mL or 0.025 ng/mL recombinant human granulocyte-macrophage colony-stimulating factor (GM-CSF), 0.10% gentamicin, and 1 to […] SR1 or other stem cell mobilizing agent.
Stage 3 medium: 90% STEMMACS′, 10% Human Serum-AB, 0.025 mM 2-mercaptoethanol (55 mM), supplemented with 22 ng/mL recombinant human SCF, 1000 U/mL recombinant human IL-2, 20 ng/mL recombinant human IL-7, 20 ng/mL recombinant human IL-15, 0.05 ng/mL or 0.025 ng/mL recombinant human IL-6, 0.25 ng/mL or 0.125 ng/mL recombinant human granulocyte colony-stimulating factor (G-CSF), 0.01 ng/mL or 0.025 ng/mL recombinant human granulocyte-macrophage colony-stimulating factor (GM-CSF), and 0.10% gentamicin.
(§6) Cells are seeded at Day 0 at 3×10^4 cells/mL in Stage 1 media, and cells are tested for purity by a CD34+ and CD45+ count and viability by 7AAD staining. At Day 5 cells are counted and seeded to a concentration of 1×10^5 cells/mL with Stage 1 medium. At Day 7 cells are counted and seeded to a concentration of 1×10^5 cells/mL with Stage 1 medium.
(§7) At Day 10, cells are counted and seeded to a concentration of 1×10^5 cells/mL in Stage 2 medium. At Day 12, cells are counted and seeded to a concentration of 3×10^5 cells/mL in Stage 2 medium. At Day 14, cells are counted and seeded in Stage 3 medium. Cells are maintained in Stage 3 media until day 35.
as §1, §2

K562 tumor cells = assay: Cytotoxicity assay of compound cultured cells against K562 tumor cells; conditions: 10:1 E:T ratio, both donors
Method: as §2
Cytotoxicity assay was run using compound cultured cells against K562 tumor cells at 10:1 effector to target ratio (FIG. 5) to evaluate cell functions.

CD34 cells = assay: CD34 cell expansion at Day 14 of the NK culture; conditions: compound at 10 μM; Day 14 of the culture
Method: as §3, §4, §5, §6
as §7, with “35. […]” for “35.”

SMILES | CD56+/CD11a+ subpopulation compared to SR1 (NK cells [1]) | level of expansion compared to SR1 at Day 35 (NK cells [2]) | killing activities of cultured cells compared to those cultured with SR1 (K562 tumor cells) | CD34 cell expansion at Day 14 (CD34 cells) | expansion, differentiation and cytotoxicity profiles compared to SR1 (NK cells [2]) | support of NK cell expansion (and differentiation), in words (NK cells [2])
CC(C)c1csc2c(NCCc3c[nH]c4ccccc34)nc(-c3cncc(F)c3)nc12 [CRL18, N-(2-(1H-indol-3-yl)ethyl)-2-(5-fluoropyridin-3-yl)-7-isopropylthieno[3,2-d]pyrimidin-4-amine] | increased CD56+/CD11a+ subpopulation | slightly less expansion compared to SR1 | increased killing activities of the cells |  |  | 
N#Cc1cncc(-c2nc(NCCc3c[nH]c4ccccc34)c3occc3n2)c1 [CRL22, 5-(4-((2-(1H-indol-3-yl)ethyl)amino)furo[3,2-d]pyrimidin-2-yl)nicotinonitrile] |  |  |  | achieved the highest CD34 cell expansion | very similar expansion, differentiation and cytotoxicity profiles as SR1 | supported cell expansion the best
CCC(C)Nc1nc(NCCc2c[nH]c3ccccc23)c2ccccc2n1 (centres unmarked) [CRL13, N^4-(2-(1H-indol-3-yl)ethyl)-N^2-(sec-butyl)quinazoline-2,4-diamine] |  |  |  |  |  | Except for CRL7 and CRL13, the rest of the compounds all resulted in a NK expansion; also recorded: all the compounds except CRL7 and CRL13 supported PNK-007 expansion and differentiation
Cc1cncc(-c2nc(NCCc3c[nH]c4ccccc34)c3occc3n2)c1 [CRL20, N-(2-(1H-indol-3-yl)ethyl)-2-(5-methylpyridin-3-yl)furo[3,2-d]pyrimidin-4-amine] |  |  |  | achieved the highest CD34 cell expansion | very similar expansion, differentiation and cytotoxicity profiles as SR1 | supported cell expansion the best
Fc1cncc(-c2nc(NCCc3c[nH]c4ccccc34)c3occc3n2)c1 [CRL19, N-(2-(1H-indol-3-yl)ethyl)-2-(5-fluoropyridin-3-yl)furo[3,2-d]pyrimidin-4-amine] |  |  |  | achieved the highest CD34 cell expansion | very similar expansion, differentiation and cytotoxicity profiles as SR1 | supported cell expansion the best
Cc1cncc(-c2nc(NCCc3c[nH]c4ccccc34)c3scc(C(C)C)c3n2)c1 [CRL21, N-(2-(1H-indol-3-yl)ethyl)-7-isopropyl-2-(5-methylpyridin-3-yl)thieno[3,2-d]pyrimidin-4-amine] | increased CD56+/CD11a+ subpopulation | slightly less expansion compared to SR1 | increased killing activities of the cells |  |  | 
CC(C)c1csc2c(NCCc3c[nH]c4ccccc34)nc(-c3cncc(C#N)c3)nc12 [CRL17, 5-(4-((2-(1H-indol-3-yl)ethyl)amino)-7-isopropylthieno[3,2-d]pyrimidin-2-yl)nicotinonitrile] | increased CD56+/CD11a+ subpopulation | slightly less expansion compared to SR1 | increased killing activities of the cells |  |  | 
CCC(C)Nc1cc(-c2cncc(C#N)c2)nc(NCCc2c[nH]c3ccccc23)n1 (centres unmarked) [CRL7, 5-(2-((2-(1H-indol-3-yl)ethyl)amino)-6-(sec-butylamino)pyrimidin-4-yl)nicotinonitrile] |  |  |  |  |  | Except for CRL7 and CRL13, the rest of the compounds all resulted in a NK expansion; also recorded: all the compounds except CRL7 and CRL13 supported PNK-007 expansion and differentiation
